What was measured:
A549 = test: In vitro combination synergy, A549 (Cell-Titer Glo); assay type: cell-based; conditions: combined with exemplary PRMT5 inhibitor, 120 h, sum of Loewe, Bliss, HSA and ZIP scores
Procedure: (§1) A panel of MTAP-deleted cancer cell lines was assembled to determine whether combining BCL-2 family inhibitors with exemplary PRMT5 inhibitors disclosed herein results in synergistic activity.
(§2) [Assays for determining the synergy score for the pairwise combinations for each cell line were performed in triplicate. 384 or 96-well plates plus additional wells of a separate 384 or 96-well control plate for determining baseline luminescence were seeded with cells of a particular MTAP-deleted cell line in a suitable growth medium for that cell line, e.g., RPMI 1640 medium supplemented with 10% FBS and any cell line specific reagents needed for growth. The plates were incubated overnight at 37 °C in a 5% CO2 atmosphere.
(§3) To each of the designated baseline wells, Cell-Titer Glo reagent (CTG; Promega Corporation) was added to each well and the plates were incubated for 20 min shaking at room temperature. Baseline luminescence was quantitated using a BMG ClarioStar multimode plate reader according to the manufacturer's instructions.
(§4) A series of 1000× drug dilutions in 100% DMSO was prepared that includes a 9-point single agent 3-fold dilution of the exemplary PRMT5 inhibitor (of the type described in WO2021/050915) with a top dose of 3000 nM (and a 6-point single agent 5-fold dilution of the BCL-2 family inhibitor with a top dose of 3000 nM as reference standards.
(§5) A 10× intermediate dosing plate was prepared in serum free medium that contains arrayed single agent dilutions of exemplary PRMT5 inhibitor (of the type described in WO2021/050915) and or the BCL-2 family inhibitor. In addition, a matrix of 54 dilution combinations of exemplary PRMT5 inhibitor (of the type described in WO2021/050915) and the BCL-2 family inhibitor was prepared as test samples.
(§6) To each corresponding well of the 384-well plates seeded with the appropriate cell line above, 10× single agent and the 54 combinations of the dose matrix was added and the plates were incubated for 120 hours at 37 °C in 5% CO2 atmosphere. Cell-Titer Glo reagent (CTG) was added to each test well, the plates were incubated for 20 min shaking at room temperature, and luminescence was quantitated using a BMG ClarioStar multimode plate reader according to the manufacturer's instructions. To normalize test samples, the determined baseline luminescence was subtracted from each test sample prior to analysis and mean values are calculated from replicate samples.
(§7) The output of the data from each mathematical model is the assignment of a relative synergy score. The data reported in Table 6 are the aggregate sum of the Loewe additivity, Bliss independence, Highest Single Agent and ZIP synergy scores (“Composite Synergy Score”).

H1437 = test: In vitro combination synergy, H1437 (Cell-Titer Glo); assay type: cell-based; conditions: combined with exemplary PRMT5 inhibitor, 120 h, sum of Loewe, Bliss, HSA and ZIP scores
Procedure: as §1, §2, §3, §4, §5, §6, §7

H1650 = test: In vitro combination synergy, H1650 (Cell-Titer Glo); assay type: cell-based; conditions: combined with exemplary PRMT5 inhibitor, 120 h, sum of Loewe, Bliss, HSA and ZIP scores
Procedure: as §1, §2, §3, §4, §5, §6, §7

H2228 = test: In vitro combination synergy, H2228 (Cell-Titer Glo); assay type: cell-based; conditions: combined with exemplary PRMT5 inhibitor, 120 h, sum of Loewe, Bliss, HSA and ZIP scores
Procedure: as §1, §2, §3, §4, §5, §6, §7

HCC4006 = test: In vitro combination synergy, HCC4006 (Cell-Titer Glo); assay type: cell-based; conditions: combined with exemplary PRMT5 inhibitor, 120 h, sum of Loewe, Bliss, HSA and ZIP scores
Procedure: as §1, §2, §3, §4, §5, §6, §7

SW1573 = test: In vitro combination synergy, SW1573 (Cell-Titer Glo); assay type: cell-based; conditions: combined with exemplary PRMT5 inhibitor, 120 h, sum of Loewe, Bliss, HSA and ZIP scores
Procedure: as §1, §2, §3, §4, §5, §6, §7

H2052 = test: In vitro combination synergy, H2052 (Cell-Titer Glo); assay type: cell-based; conditions: combined with exemplary PRMT5 inhibitor, 120 h, sum of Loewe, Bliss, HSA and ZIP scores
Procedure: as §1, §2, §3, §4, §5, §6, §7

H2452 = test: In vitro combination synergy, H2452 (Cell-Titer Glo); assay type: cell-based; conditions: combined with exemplary PRMT5 inhibitor, 120 h, sum of Loewe, Bliss, HSA and ZIP scores
Procedure: as §1, §2, §3, §4, §5, §6, §7

Mero83 = test: In vitro combination synergy, Mero83 (Cell-Titer Glo); assay type: cell-based; conditions: combined with exemplary PRMT5 inhibitor, 120 h, sum of Loewe, Bliss, HSA and ZIP scores
Procedure: as §1, §2, §3, §4, §5, §6, §7

Mero84 = test: In vitro combination synergy, Mero84 (Cell-Titer Glo); assay type: cell-based; conditions: combined with exemplary PRMT5 inhibitor, 120 h, sum of Loewe, Bliss, HSA and ZIP scores
Procedure: as §1, §2, §3, §4, §5, §6, §7

Miapaca2 = test: In vitro combination synergy, Miapaca2 (Cell-Titer Glo); assay type: cell-based; conditions: combined with exemplary PRMT5 inhibitor, 120 h, sum of Loewe, Bliss, HSA and ZIP scores
Procedure: as §1, §2, §3, §4, §5, §6, §7

SU8686 = test: In vitro combination synergy, SU8686 (Cell-Titer Glo); assay type: cell-based; conditions: combined with exemplary PRMT5 inhibitor, 120 h, sum of Loewe, Bliss, HSA and ZIP scores
Procedure: as §1, §2, §3, §4, §5, §6, §7

RT4 = test: In vitro combination synergy, RT4 (Cell-Titer Glo); assay type: cell-based; conditions: combined with exemplary PRMT5 inhibitor, 120 h, sum of Loewe, Bliss, HSA and ZIP scores
Procedure: as §1, §2, §3, §4, §5, §6, §7

LU99 xenograft tumors = test: In vivo combination study (LU99 model), Example 1; parameters: species or system female nu/nu mice; conditions: MRTX1719, ABT-263, ABT-199 each 100 mg/kg PO QD, alone or combined
Source text: Immunodeficient female nu/nu mice were implanted with 5×10^6 LU99 cancer cells in 50% Matrigel. Tumor volume measurements were collected using calipers and determined utilizing the formula 0.5×L×W^2 in which L refers to length and W refers to width of each tumor. When tumors reached approximately 125-150 mm^3, animals were randomized to receive A) vehicle, B) a PRMT5 inhibitor, C) navitoclax (ABT-263), D) venetoclax (ABT-199), E) A-1331852, F) the PRMT5 inhibitor and navitoclax, F) the PRMT5 inhibitor and venetoclax, or G) the PRMT5 inhibitor and A-1331852 all administered orally (PO) with the indicated dose and schedule for 20-34 days. Tumor volume was measured twice a week (n=5/treatment group). Average tumor volume and standard error of the mean was calculated and plotted at each study day using GraphPad Prism.
The PRMT5 inhibitor was MRTX1719 administered at 100 mg/kg once a day (QD). MRTX1719 is (2M)-2-(4-(4-(aminomethyl)-1-oxo-1,2-dihydrophthalazin-6-yl)-1-methyl-1H-pyrazol-5-yl)-4-chloro-6-cyclopropoxy-3-fluorobenzonitrile, disclosed as Example 16-8 at p. 307 of the international patent publication No. WO 2021/050915 A1, published 18 Mar. 2021, incorporated by reference in its entirety.
The BCL-2 family inhibitors used in this example, ABT-199 (venetoclax) and ABT-263 (navitoclax), were administered at 100 mg/kg once a day (QD) and supplied by Selleck Chemicals (Houston, TX).

| Structure (SMILES) | Composite Synergy Score (A549) | Composite Synergy Score (H1437) | Composite Synergy Score (H1650) | Composite Synergy Score (H2228) | Composite Synergy Score (HCC4006) | Composite Synergy Score (SW1573) | Composite Synergy Score (H2052) | Composite Synergy Score (H2452) | Composite Synergy Score (Mero83) | Composite Synergy Score (Mero84) | Composite Synergy Score (Miapaca2) | Composite Synergy Score (SU8686) | Composite Synergy Score (RT4) | Average Tumor Volume (LU99 xenograft tumors; day 3) [mm^3] | Average Tumor Volume (LU99 xenograft tumors; day 6) [mm^3] | Average Tumor Volume (LU99 xenograft tumors; day 10) [mm^3] | Average Tumor Volume (LU99 xenograft tumors; day 13) [mm^3] | Average Tumor Volume (LU99 xenograft tumors; day 17) [mm^3] | Average Tumor Volume (LU99 xenograft tumors; day 20) [mm^3] | Average Tumor Volume (LU99 xenograft tumors; day −1) [mm^3] |
| --- | --- | --- | --- | --- | --- | --- | --- | --- | --- | --- | --- | --- | --- | --- | --- | --- | --- | --- | --- | --- |
| Cc1c(-c2ccc(N3CCc4cccc(C(=O)Nc5nc6ccccc6s5)c4C3)nc2C(=O)O)cnn1CC12CC3CC(CC(C3)C1)C2 [A-1331852] | 42 | 36 | 62 | 36 | 63 | 50 | 12 | 42 | 11 | 0 | 70 | 50 | 40 | – | – | – | – | – | – | – |
| Cn1ncc(-c2ccc3c(=O)[nH]nc(CN)c3c2)c1-c1c(F)c(Cl)cc(OC2CC2)c1C#N (atropisomer, axis not shown; (M)) [MRTX1719, (2M)-2-(4-(4-(aminomethyl)-1-oxo-1,2-dihydrophthalazin-6-yl)-1-methyl-1H-pyrazol-5-yl)-4-chloro-6-cyclopropoxy-3-fluorobenzonitrile] | – | – | – | – | – | – | – | – | – | – | – | – | – | 215 | 236 | 236 | 260 | 282 | 302 | 153 |
| CC1(C)CCC(c2ccc(Cl)cc2)=C(CN2CCN(c3ccc(C(=O)NS(=O)(=O)c4ccc(N[C@H](CCN5CCOCC5)CSc5ccccc5)c(S(=O)(=O)C(F)(F)F)c4)cc3)CC2)C1 [ABT-263, navitoclax] | 23 | 13 | 32 | 24 | 23 | 14 | 11 | −20 | −26 | −4 | 16 | 12 | 24 | 236 | 359 | 558 | 737 | 1042 | 1237 | 153 |
